Columns and labels:
[1] = system: CDK/Cyclin kinase activity in HeLa cell extracts; assay: Fluorescence kinase assay of CDKACTH1 in HeLa cell extracts; format: biochemical; conditions: 20 ug HeLa cell extracts, increasing concentrations of inhibitor
Description: (§1) Fluorescence kinase assays were performed in 96-well plates in a thermostated chamber (Polarstar BMG) at 30° C. in 200 ul phosphate buffer saline, pH 7.2, 150 mM NaCl, in the presence of 5 mM MgCl2, 0.5 mM ATP, except when stated otherwise. The fluorescence of Cy3-labelled CDKACTH1 with recombinant CDK/Cyclin complexes or with cell extracts was monitored over time. Changes in Cy3 fluorescence emission were recorded at 590 nm following excitation at 544 nm. In all experiments, the fluorescence of CDKACTH1-Cy3 alone was substracted from all other values. Data analysis and curve fitting were performed using the GraFit Software (Erathicus Ltd).
Cell culture media, serum and antibiotics were purchased from Invitrogen. HeLa, HS68, A549, MCF-7 and U2OS cells were cultured in DMEM+Glutamax supplemented with 10% FCS, 1 mM penicillin and 1 mM streptomycin at 37° C. in an atmosphere containing 5% CO2. HT2-19 cells, provided by Dr. A. Porter, were cultured in DMEM+NEAA, antibiotics, sodium pyruvate and glutamine, and supplemented with 10% FCS29. Cell extracts were prepared in TBS lysis buffer containing 50 mM TrisHCl, pH 7.4, 150 mM NaCl, 0.1% NP40, 0.1% Deoxycholate, 2 mM EDTA, 1 mM PMSF, Complete™ protease inhibitors (Roche), and normalized following spectrophometric dosage at 280 nm. Phosphatase inhibitors: 50 mM NaF, 40 mM β-Glycero-phosphate, 1 mM Na3VO4.
Kinase assays were performed in the same conditions as above. […] As shown in FIG. 4A-C, incubation of 20 ug HeLa cell extracts with CDKACTH1 yielded a very similar profile to that obtained with recombinant CDK/Cyclins, implying that these kinases were indeed phosphorylating the substrate sequence of the biosensor. […] Since phosphorylation events are counterbalanced by phosphatases in mammalian cell extracts, we asked whether the response measured would be further improved if phosphatase activity was blocked.

[2] = molecular target: T1, CDK2/Cyclin A (Homo sapiens, UniProt P24941); assay: Real-time fluorescence kinase assay with recombinant active CDK2/Cyclin A; format: biochemical
T1 construct: made in house; host or cells: E. coli
Description: (§2) In order to characterize CDKACT-H1 biosensor in vitro, we first asked whether it could be used to monitor recombinant kinase activity in a real-time assay.
as §1, §2
In vitro characterization was performed as described in Example 2. […] Assays were performed at 30° C. for 1600s. Fluorescence emission of Cy5 was measured at 675 nm following excitation at 645 nm on Polarstar™ fluorimeter.
Assays were performed at 30° C. for 1600s. Fluorescence emission of Cy3 was measured at 590 nm following excitation at 544 nm on Polarstar™ fluorimeter.

[3] = system: A375 rvluc2 cells; assay: A375 xenograft tumour growth in NMRI nude mice; format: in vivo; conditions: Roscovitine IP 50 mg/kg/day for 7 days
[4] = molecular target: T2, CDK4/Cyclin D (Homo sapiens, UniProt P11802); assay: Real-time fluorescence kinase assay with recombinant CDK4/Cyclin D; format: biochemical; conditions: 20 uM inhibitor; 75 nM CDK4/CyclinD, 25 nM CDKACTH1-Cy3
T2 construct: made in house; host or cells: E. coli
Description: as §1
To address the issue of specificity, we asked whether other kinases could phosphorylate and thereby affect the fluorescence of CDKACTH1. We first examined CDK1/Cyclin B and CDK4/Cyclin D (FIGS. 3A and B).

T2 sequence (P11802 whole entry, species assumed): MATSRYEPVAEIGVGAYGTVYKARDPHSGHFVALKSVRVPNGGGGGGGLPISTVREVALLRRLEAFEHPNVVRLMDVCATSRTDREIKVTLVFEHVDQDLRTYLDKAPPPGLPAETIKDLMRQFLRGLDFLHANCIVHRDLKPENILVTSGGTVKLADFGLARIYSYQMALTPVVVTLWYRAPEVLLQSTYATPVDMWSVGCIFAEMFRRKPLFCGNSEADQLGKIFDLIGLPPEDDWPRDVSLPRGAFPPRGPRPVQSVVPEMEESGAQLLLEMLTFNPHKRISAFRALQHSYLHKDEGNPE
T2 sequence (P24385 whole entry partner, species assumed): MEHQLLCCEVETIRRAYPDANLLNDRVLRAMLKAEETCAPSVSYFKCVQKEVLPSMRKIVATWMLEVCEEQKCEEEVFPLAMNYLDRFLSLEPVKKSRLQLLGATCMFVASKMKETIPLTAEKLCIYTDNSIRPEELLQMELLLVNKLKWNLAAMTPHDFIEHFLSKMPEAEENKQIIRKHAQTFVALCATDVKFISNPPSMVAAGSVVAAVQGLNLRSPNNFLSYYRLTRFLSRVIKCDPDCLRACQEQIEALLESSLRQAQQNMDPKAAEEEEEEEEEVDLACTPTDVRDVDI

`O=C1NC(=NCc2cccs2)S/C1=C\c1ccc2ncccc2c1` [RO3306] was tested, and the “share of CDKACTH1 phosphorylating activity attributed to the kinases blocked by the inhibitor” value (shortened to “share … by the inhibitor”) [1] was “larger part of activities”.
In the case of “CDKACTWWH1: peptide biosensor SEQ ID No 20: Pin1 WW phosphobinding domain, linker SEQ ID No 14, histone H1 substrate domain; synthesized, dye-labelled (KLPPGWEKRMSRSSGRVYYFNHITNASQWERPSGPGAGGTGGLPGGGGCSTPKKAKKL; Cy5 or Cy3 dye label; Polypeptide comprising: the WW domain of PIN1 wherein all Cystein residues are replaced by a Serine residue, a linker and the CDK substrate domain from histone H1)”, the “fluorescence enhancement compared with CDKACTH1” value ([2]; 25 nM Cy3-labelled sensors, 25 nM active CDK2/Cyclin A3) is reported as “greater changes in fluorescence enhancement” and the “fluorescence response to CDK2/CyclinA activity” value ([2]; 25 nM Cy5-CDKACT-WWH1, 25 nM active CDK2/Cyclin A3, 5 mM ATP, 20 mM MgCl2) is reported as “significant changes in fluorescence enhancement”.
In the case of `CC(=O)c1c(C)c2cnc(Nc3ccc(N4CCNCC4)cn3)nc2n(C2CCCC2)c1=O` [PD-0332991], the “share … by the inhibitor” value [1] is reported as “partial activity”.
In the case of `CC[C@H](CO)Nc1nc(NCc2ccccc2)c2ncn(C(C)C)c2n1` [roscovitine], the “size of tumours compared to vehicle” value ([3]; versus DMSO vehicle) is reported as 55.6%, the “size of tumours compared to control” value ([3]; versus non-treated control) is reported as 53.8% and the “share … by the inhibitor” value [1] is reported as “larger part of activities”. The “effect of inhibitor on the CDKACTH1 fluorescence signal” value [4] was “no effect”.
